What was measured:
[1] = test system: PANC-1 (human pancreatic carcinoma) cells; assay: Impedance-based viability assay (xCELLigence SP), long treatment; format: cell-based; conditions: 72 h, read-out: cytotoxicity expressed in IC50, PANC-1
Description: (Gibco®/Invitrogen Corporation, New York, NY, USA).
Data obtained from each experiment represent mathematical averages.

[2] = test system: EBC-1 lung cancer cell line; assay: High-throughput screening, CellTiter-Glo cell viability assay at 100 nM; format: cell-based, human; conditions: Homo sapiens, EBC-1, HTS, compounds at 100 nM, 72 h, read-out: cytotoxicity expressed in IC50, EBC-1 (results of High throughput screening)
[3] = test system: H2228 lung cancer cell line; assay: as above; format: cell-based, human; conditions: Homo sapiens, NCI-H2228, HTS, compounds at 100 nM, 72 h, read-out: cytotoxicity expressed in IC50, H2228 (results of High throughput screening)
[4] = test system: Capan-1 (pancreas, adenocarcinoma) cells; assay: Cell viability assay, CellTiter-Glo (Example 21); format: cell-based, human; conditions: 72 h treatment
How it was run: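 Viability of Capan-1 pancreatic adenocarcinoma cells was assessed using Promega's CellTiter-Glo® luminescence kit. Cells were plated at 1000 cells/well in white, flat-bottom 96 well plates, treated, then luminescence was recorded on a BioTek Synergy 2 reader. Dose-response curves were fitted in GraphPad Prism 8.4.2 with a four-parameter variable-slope non-linear regression.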

[5] = test system: DU 145 (prostate, carcinoma) cells; assay: Cell viability assay, CellTiter-Glo (Example 21); format: cell-based, human; conditions: 72 h
How it was run: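 DU 145 prostate carcinoma cells were plated at 1000 cells/well in white flat-bottom 96 well plates and exposed to compound. Viability was then determined by CellTiter-Glo® luminescence on a BioTek Synergy 2 reader, and dose-response curves were fitted in GraphPad Prism 8.4.2 with a four-parameter variable-slope non-linear regression.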

[6] = test system: Detroit 562 (pharynx, carcinoma) cells; assay: Cell viability assay, CellTiter-Glo (Example 21); format: cell-based, human; conditions: 72 h treatment
How it was run: (§1)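 Cells were seeded at optimized densities (Panc-1 750, FaDu 1000, Detroit 562 and MDA-MB-453 1500 cells/well), then treated with compound. Viability was read by CellTiter-Glo luminescence. Dose-response curves were fitted by four-parameter variable-slope non-linear regression.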

[7] = test system: EBC-1 (lung, squamous cell carcinoma) cells; assay: Cell viability assay, CellTiter-Glo (Example 21); format: cell-based, human; conditions: 72 h treatment
How it was run: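 The CellTiter-Glo luminescent cell viability assay (Promega) was used to test compound effects on EBC-1 cells. Cells were plated at 1000 cells/well on white flat-bottom 96 well plates, treated, then read for luminescence on a microplate reader. Dose-response curves were fitted by four-parameter variable-slope non-linear regression.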

[8] = test system: FaDu (pharynx, squamous cell carcinoma) cells; assay: Cell viability assay, CellTiter-Glo (Example 21); format: cell-based, human; conditions: 72 h treatment
How it was run: as §1

[9] = test system: LNCaP (prostate, carcinoma) cells; assay: Cell viability assay, CellTiter-Glo (Example 21); format: cell-based, human; conditions: 72 h
How it was run: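 Flat-bottomed white 96 well plates received 1500 LNCaP cells per well, a density chosen to suit the cells' size and growth rate. Following compound treatment, viability was measured by CellTiter-Glo® luminescence per the manufacturer's protocol, with signal recorded on a BioTek Synergy 2 reader. GraphPad Prism 8.4.2 generated dose-response curves using a four-parameter, variable-slope non-linear regression model.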

[10] = test system: MDA-MB-231 (breast, adenocarcinoma) cells; assay: Cell viability assay, CellTiter-Glo (Example 21); format: cell-based, human; conditions: 72 h treatment
How it was run: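 Viability of MDA-MB-231 cells was quantified by luminescence using Promega's CellTiter-Glo® kit per manufacturer instructions. Cells, plated at a size- and growth-optimized density of 1500 cells/well in white flat-bottom 96 well plates, were treated and then read on a BioTek Synergy 2 reader; dose-response curves used four-parameter variable-slope non-linear regression in GraphPad Prism 8.4.2.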

[11] = test system: MDA-MB-453 (breast, carcinoma) cells; assay: Cell viability assay, CellTiter-Glo (Example 21); format: cell-based, human; conditions: 72 h treatment
How it was run: as §1

[12] = test system: MIA PaCa-2 (pancreas, carcinoma) cells; assay: Cell viability assay, CellTiter-Glo (Example 21); format: cell-based, human; conditions: 72 h treatment
How it was run: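 Cell viability of MIA PaCa-2 cells was assessed by CellTiter-Glo® luminescence (Promega, Madison, WI, USA). Cells were plated at 1000 cells/well, a density chosen for their size and growth rate, in white flat-bottomed 96 well plates. After treatment, the signal was recorded on a BioTek microplate reader, and dose-response curves were fitted in GraphPad Prism 8.4.2 with a four-parameter variable-slope non-linear regression.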

[13] = test system: PC-3 (prostate, adenocarcinoma) cells; assay: Cell viability assay, CellTiter-Glo (Example 21); format: cell-based, human; conditions: 72 h treatment
How it was run: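 Cancer cell viability was assessed by luminescence using Promega's CellTiter-Glo® kit. PC-3 cells, plated at a density of 1000 cells/well in white flat-bottom 96 well plates, were exposed to test compounds, after which signals were measured on a microplate reader and dose-response curves fitted by four-parameter variable-slope non-linear regression in GraphPad Prism 8.4.2.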

[14] = test system: Panc-1 (pancreas, carcinoma) cells; assay: Cell viability assay, CellTiter-Glo (Example 21); format: cell-based, human; conditions: 72 h treatment
How it was run: as §1

[15] = test system: SCC-25 (tongue, squamous cell carcinoma) cells; assay: Cell viability assay, CellTiter-Glo (Example 21); format: cell-based, human; conditions: 72 h treatment
How it was run: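 Cell viability of SCC-25 cells was assessed by CellTiter-Glo luminescence after compound exposure. Cells were plated at 1000 cells/well, a density chosen for their size and growth rate, on white flat-bottom 96 well plates. Signal was recorded on a microplate reader, and dose-response curves were fitted in GraphPad Prism by four-parameter variable-slope non-linear regression.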

Q: For `[N-]=[N+]=Nc1cccc(CN2CCC3=C(C2)C(=O)N(Cc2ccc(C(F)(F)F)cc2)C2=NCCN23)c1` [I/111, 7-(3-Azidobenzyl)-4-(4-(trifluoromethyl)benzyl)-2,4,6,7,8,9-hexahydroimidazo[1,2-a]pyrido[3,4-e]pyrimidin-5(1H)-one], which IC50 [1] is on record?
A: 10 nM

Q: What about the IC50 [2] of the same compound?
A: < 100 nM

Q: And the IC50 [3]?
A: < 100 nM

Q: What about the “Capan-1 (pancreas, adenocarcinoma) cell viability (% of control)” value ([4]; 3.7 nM) of the same compound?
A: 102.5 ± 4.0 % of control

Q: And the “Capan-1 (pancreas, adenocarcinoma) cell viability (% of control)” value ([4]; 11.1 nM)?
A: 95.1 ± 8.2 % of control

Q: And the “Capan-1 (pancreas, adenocarcinoma) cell viability (% of control)” value ([4]; 100 nM)?
A: 31.7 ± 1.7 % of control

Q: And the “Capan-1 (pancreas, adenocarcinoma) cell viability (% of control)” value ([4]; 300 nM)?
A: 30.8 ± 3.3 % of control

Q: What about the “DU 145 cell viability” value ([5]; 3.7 nM) of the same compound?
A: 93.6 ± 6.9 % of control

Q: What about the “DU 145 cell viability” value ([5]; 11.1 nM) of the same compound?
A: 33.8 ± 5.0 % of control

Q: What about the “DU 145 cell viability” value ([5]; 100 nM) of the same compound?
A: 7.1 ± 2.0 % of control

Q: And the “DU 145 cell viability” value ([5]; 300 nM)?
A: 8.1 ± 1.9 % of control

Q: And the “Detroit 562 (pharynx, carcinoma) cell viability (% of control)” value ([6]; 3.7 nM)?
A: 48.0 ± 21.7 % of control

Q: What about the “Detroit 562 (pharynx, carcinoma) cell viability (% of control)” value ([6]; 11.1 nM) of the same compound?
A: 32.8 ± 3.7 % of control

Q: And the “Detroit 562 (pharynx, carcinoma) cell viability (% of control)” value ([6]; 100 nM)?
A: 26.8 ± 2.8 % of control

Q: What about the “Detroit 562 (pharynx, carcinoma) cell viability (% of control)” value ([6]; 300 nM) of the same compound?
A: 28.8 ± 3.8 % of control

Q: And the “EBC-1 (lung, squamous cell carcinoma) cell viability (% of control)” value ([7]; 3.7 nM)?
A: 94.1 ± 3.0 % of control

Q: And the “EBC-1 (lung, squamous cell carcinoma) cell viability (% of control)” value ([7]; 11.1 nM)?
A: 54.0 ± 6.5 % of control

Q: And the “EBC-1 (lung, squamous cell carcinoma) cell viability (% of control)” value ([7]; 100 nM)?
A: 20.6 ± 0.6 % of control

Q: And the “EBC-1 (lung, squamous cell carcinoma) cell viability (% of control)” value ([7]; 300 nM)?
A: 20.0 ± 0.0 % of control

Q: And the “FaDu (pharynx, squamous cell carcinoma) cell viability (% of control)” value (shortened to “FaDu … (% of control)”) ([8]; 3.7 nM)?
A: 97.7 ± 3.9 % of control

Q: What about the “FaDu … (% of control)” value ([8]; 11.1 nM) of the same compound?
A: 66.8 ± 12.0 % of control

Q: What about the “FaDu … (% of control)” value ([8]; 100 nM) of the same compound?
A: 21.7 ± 5.4 % of control

Q: And the “FaDu … (% of control)” value ([8]; 300 nM)?
A: 22.1 ± 4.8 % of control

Q: And the LNCaP cell viability ([9]; 3.7 nM)?
A: 97.1 ± 2.6 % of control

Q: And the LNCaP cell viability ([9]; 11.1 nM)?
A: 32.4 ± 2.3 % of control

Q: What about the LNCaP cell viability ([9]; 100 nM) of the same compound?
A: 11.8 ± 0.7 % of control

Q: What about the LNCaP cell viability ([9]; 300 nM) of the same compound?
A: 11.7 ± 0.7 % of control

Q: And the “MDA-MB-231 (breast, adenocarcinoma) cell viability (% of control)” value ([10]; 3.7 nM)?
A: 102.7 ± 2.8 % of control

Q: And the “MDA-MB-231 (breast, adenocarcinoma) cell viability (% of control)” value ([10]; 11.1 nM)?
A: 98.5 ± 2.1 % of control

Q: And the “MDA-MB-231 (breast, adenocarcinoma) cell viability (% of control)” value ([10]; 100 nM)?
A: 56.9 ± 2.2 % of control

Q: And the “MDA-MB-231 (breast, adenocarcinoma) cell viability (% of control)” value ([10]; 300 nM)?
A: 52.8 ± 2.7 % of control

Q: What about the “MDA-MB-453 (breast, carcinoma) cell viability (% of control)” value ([11]; 3.7 nM) of the same compound?
A: 107.2 ± 5.9 % of control

Q: What about the “MDA-MB-453 (breast, carcinoma) cell viability (% of control)” value ([11]; 11.1 nM) of the same compound?
A: 45.7 ± 5.0 % of control

Q: And the “MDA-MB-453 (breast, carcinoma) cell viability (% of control)” value ([11]; 100 nM)?
A: 30.3 ± 1.0 % of control

Q: What about the “MDA-MB-453 (breast, carcinoma) cell viability (% of control)” value ([11]; 300 nM) of the same compound?
A: 28.8 ± 0.4 % of control

Q: And the “MIA PaCa-2 (pancreas, carcinoma) cell viability (% of control)” value ([12]; 3.7 nM)?
A: 100.2 ± 8.8 % of control

Q: And the “MIA PaCa-2 (pancreas, carcinoma) cell viability (% of control)” value ([12]; 11.1 nM)?
A: 90.6 ± 19.3 % of control

Q: And the “MIA PaCa-2 (pancreas, carcinoma) cell viability (% of control)” value ([12]; 100 nM)?
A: 16.5 ± 6.7 % of control

Q: And the “MIA PaCa-2 (pancreas, carcinoma) cell viability (% of control)” value ([12]; 300 nM)?
A: 16.2 ± 6.9 % of control

Q: And the “PC-3 (prostate, adenocarcinoma) cell viability (% of control)” value ([13]; 3.7 nM)?
A: 106.8 ± 2.4 % of control

Q: What about the “PC-3 (prostate, adenocarcinoma) cell viability (% of control)” value ([13]; 11.1 nM) of the same compound?
A: 75.5 ± 5.9 % of control

Q: And the “PC-3 (prostate, adenocarcinoma) cell viability (% of control)” value ([13]; 100 nM)?
A: 32.0 ± 3.2 % of control

Q: What about the “PC-3 (prostate, adenocarcinoma) cell viability (% of control)” value ([13]; 300 nM) of the same compound?
A: 31.3 ± 3.0 % of control

Q: And the “Panc-1 (pancreas, carcinoma) cell viability (% of control)” value ([14]; 3.7 nM)?
A: 106.1 ± 7.3 % of control

Q: And the “Panc-1 (pancreas, carcinoma) cell viability (% of control)” value ([14]; 11.1 nM)?
A: 99.6 ± 1.4 % of control

Q: What about the “Panc-1 (pancreas, carcinoma) cell viability (% of control)” value ([14]; 100 nM) of the same compound?
A: 50.1 ± 2.0 % of control

Q: What about the “Panc-1 (pancreas, carcinoma) cell viability (% of control)” value ([14]; 300 nM) of the same compound?
A: 49.7 ± 1.2 % of control

Q: And the “SCC-25 (tongue, squamous cell carcinoma) cell viability (% of control)” value ([15]; 3.7 nM)?
A: 98.3 ± 4.0 % of control

Q: What about the “SCC-25 (tongue, squamous cell carcinoma) cell viability (% of control)” value ([15]; 11.1 nM) of the same compound?
A: 79.0 ± 11.0 % of control

Q: And the “SCC-25 (tongue, squamous cell carcinoma) cell viability (% of control)” value ([15]; 100 nM)?
A: 32.5 ± 1.2 % of control

Q: What about the “SCC-25 (tongue, squamous cell carcinoma) cell viability (% of control)” value ([15]; 300 nM) of the same compound?
A: 36.4 ± 0.9 % of control

Reference: patent US20230295162A1 (EÖTVÖS LORÁND TUDOMÁNYEGYETEM, priority 2020, published 2023)
